The values below are quoted from earlier work in patent publication US20140107050A1, “INCREASING BIOAVAILABILITY OF N-COUMAROYLDOPAMINE THROUGH CO-ADMINISTRATION WITH A CATECHOL-O-[…] (COMT) INHIBITOR” (Redefine Nutrition, LLC, priority 2012, published 2014).

Structures are written as SMILES.

One data set deals with T1, beta-adrenoreceptor (Homo sapiens, UniProt P07550).
T1 construct: increase cAMP via beta 2-adrenoreceptors in myelocytic U937 cells; endogenous in cells; host or cells: U937 cells
T1 sequence (P07550 whole entry): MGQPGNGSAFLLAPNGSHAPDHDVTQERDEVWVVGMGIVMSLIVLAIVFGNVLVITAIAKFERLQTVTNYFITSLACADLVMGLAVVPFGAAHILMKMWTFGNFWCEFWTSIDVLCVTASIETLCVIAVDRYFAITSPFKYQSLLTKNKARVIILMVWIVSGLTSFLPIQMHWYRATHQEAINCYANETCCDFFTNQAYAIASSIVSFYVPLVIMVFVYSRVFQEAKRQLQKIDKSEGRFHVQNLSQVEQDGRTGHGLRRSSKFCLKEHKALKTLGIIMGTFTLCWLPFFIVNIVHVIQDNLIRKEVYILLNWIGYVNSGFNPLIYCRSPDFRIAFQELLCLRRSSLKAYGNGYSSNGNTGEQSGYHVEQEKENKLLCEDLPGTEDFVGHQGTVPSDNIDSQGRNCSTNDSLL
Conditions: recent in vitro studies (Park 2005).

The target in data set [1] is T2, catechol-o-methyltransferase (COMT) (Homo sapiens, UniProt P21964).
T2 sequence (P21964 1-271): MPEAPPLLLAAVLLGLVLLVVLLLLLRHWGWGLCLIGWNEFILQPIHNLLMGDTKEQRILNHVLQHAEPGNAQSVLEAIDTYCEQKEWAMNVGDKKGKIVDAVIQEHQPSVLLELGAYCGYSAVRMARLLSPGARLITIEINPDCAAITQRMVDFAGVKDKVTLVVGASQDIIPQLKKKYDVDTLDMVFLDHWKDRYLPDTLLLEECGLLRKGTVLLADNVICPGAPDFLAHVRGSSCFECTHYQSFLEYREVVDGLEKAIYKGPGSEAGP
Conditions: values taken from cited literature; read-out: half maximal inhibitory concentration (IC50) for COMT inhibition.

For the compound `O=C(/C=C/c1ccc(O)cc1)NCCc1ccc(O)c(O)c1` [N-coumaroyldopamine], the beta-adrenoreceptor agonist activity entry at beta-adrenoreceptor is reported as “acts as a beta-adrenoreceptor agonist”. As for `O=C(/C=C/c1ccc(O)c(O)c1)O[C@@H]1C[C@](O)(C(=O)O)C[C@@H](O)[C@H]1O` [chlorogenic acid], the IC50 in data set [1] was 1300 to 1400 nM. On to `O=c1c(O)c(-c2ccc(O)c(O)c2)oc2cc(O)cc(O)c12` [quercetin], for which, in data set [1], the IC50 was around 500 nM.
